Columns and labels:
[1] = implicit solvent model, values received; cited from earlier work
[2] = Free energy of hydration by COSMO implicit solvent model (MolPro ver. 2012); details: absolute error vs Exp (hydration)
In short: (§1)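 Implicit-solvent predictions of hydration free energy. MolPro supplied the COSMO solvation energies across the dataset. Predicted SMD and PCM values were received rather than computed here. Coverage for SMD, PCM and COSMO-RS matches the QM-parameterized force-field subset.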

[3] = Bulk solvent properties (density, heat of vaporization, self-solvation) predicted with the QM-parameterized force field model (AFF MD / PIMD); details: density, heat of vaporization, self-solvation; PIMD8
Source text: Particle-Mesh Ewald (PME) algorithm was used to compute the electrostatic interactions. A 32×32×32 grid mesh and 5th power spline interpolation order can be used to compute the inverse PME sum. 9 Å cutoffs were used to compute the direct PME sum as well as the exchange and dispersion interactions. Bulk corrections were applied to account for distance cut-off of dispersion interactions. Solvation free energies were computed by decoupling the interactions between the solute and the solvent molecules. Electrostatic, exchange-repulsion and dispersion interactions were switched off simultaneously using a lambda-dependent scaling (a scaling factor power=2 was used) and a soft-coring algorithm (maximal soft-coring radius=1.5 Å, soft-coring radius scaling factor power=1). 15 lambda points unequally spaced (X=0, 0.05, 0.1, 0.2, 0.3, 0.4, 0.5, 0.6, 0.7, 0.75, 0.8, 0.85, 0.9, 0.95, 1.0) were used to decouple the solute-solvent intermolecular interactions.
In some simulations of the QM-parameterized force field molecular simulation process, energy minimization (10,000 steps) using the steepest descent algorithm was initially performed on all the simulation systems. This was followed by a 50 ps equilibration and 1 ns production runs in the isothermal-isobaric ensemble (NPT). […] Pressure was maintained at 1 atm using a MTTK barostat (relaxation time=5 ps). […]

[4] = CHEX/H2O partition coefficient (log D) predicted with the QM-parameterized force field model (ARROW FF)
In short: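 Cyclohexane/water partition coefficients were predicted by molecular simulation with a QM-parameterized force field, with bonded force constants and equilibrium values fitted to MP2/aug-cc-pVTZ energies. Solutes carried neutral functional groups, and results from four independent groups were averaged.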

[5] = Table 3; CHEX/H2O partition coefficient, experimental; cited from earlier work
[6] = Free energy of hydration by COSMO-RS
In short: as §1

[7] = Free energy of hydration predicted by polarizable AMOEBA force field, from literature; details: Table 5; error of AMOEBA hydration free energy vs experiment
[8] = Free energy of hydration by Solvation Model Dielectric (SMD) implicit solvent model; details: absolute error vs Exp (hydration)
In short: as §1

[9] = Free energy of hydration by Polarizable Continuum Model (PCM); details: absolute error vs Exp (hydration)
In short: as §1

[10] = Table 5; free energy of hydration, AMOEBA prediction taken from literature; cited from earlier work
[11] = Table 5; free energy of hydration, GAFF prediction taken from literature; cited from earlier work
[12] = Free energy of hydration predicted by General Amber Force Field (GAFF), from literature; details: Table 5; error of GAFF hydration free energy vs experiment
[13] = implicit solvent model, values received; cited from earlier work; remark: listed apart in the source
[14] = Table 3; free energy of solvation in cyclohexane, experimental; cited from earlier work
[15] = experimental, cited from earlier work
[16] = experimental; cited from earlier work
[17] = Free energy of hydration predicted with the QM-parameterized force field model (ARROW FF), classical MD and PIMD simulation in a water box
In short: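 Classical and PIMD runs (MTS integrator, MTTK barostat at 1 atm) followed minimization and 50 ps equilibration, with 1 ns NPT production per window. Fifteen unequally spaced lambda windows removed all solute-solvent interactions simultaneously in a 32 Å water box. Hydration free energy computed by Bennett acceptance ratio and thermodynamic integration.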

For `O` [Water], which “PCM free energy of hydration” value [1] is on record?
Its value is -19.7 kJ/mol.

And the “COSMO/Molpro Error” value [2]?
The value was 9.58 kJ/mol.

And the “agreement of predicted bulk properties with experimental values” [3]?
The value was at most 3%.

And the “log D Arrow MD Error” value [4]?
The value was 0.31.

And the “log D Arrow PIMD Error” value [4]?
The value was 0.17.

And the “Exp (log D)” value [5]?
Its value is −4.33.

And the COSMO-RS error [6]?
Its COSMO-RS error is 10.6 kJ/mol.

What about the AMOEBA error [7] of the same compound?
The AMOEBA error was 1.84 kJ/mol.

What about the “SMD Error” value [8] of the same compound?
The value was 7.11 kJ/mol.

What about the “PCM Error” value [9] of the same compound?
The value was 6.69 kJ/mol.

And the AMOEBA [10]?
The AMOEBA was -24.5 kJ/mol.

What about the GAFF [11] of the same compound?
Its GAFF is -25.3 kJ/mol.

What about the GAFF error [12] of the same compound?
The GAFF error was 1.09 kJ/mol.

And the “SMD free energy of hydration” value [13]?
Its value is -33.5 kJ/mol.

What about the “CHEX Exp (solvation)” value [14] of the same compound?
The value was -1.63 kJ/mol.

And the “water Exp (hydration)” value ([15]; Table 3, free energy of hydration)?
Its value is -26.4 kJ/mol.

And the “Exp (hydration)” value ([15]; Table 5, free energy of hydration)?
The value was -26.4 kJ/mol.

What about the Hydration [15] of the same compound?
Its Hydration is -26.4 kJ/mol.

And the Density [16]?
Its Density is 0.997 g/cc.

What about the Hvap [16] of the same compound?
Its Hvap is 43.97 kJ/mol.

What about the self-solvation [16] of the same compound?
The self-solvation was -26.4 kJ/mol.

What about the “water Arrow MD Error” value ([17]; Table 3, absolute error of MD hydration free energy vs experiment) of the same compound?
Its value is 2.13 kJ/mol.

And the “water Arrow PIMD8 Error” value ([17]; Table 3, absolute error of PIMD8 hydration free energy vs experiment)?
The value was 0.711 kJ/mol.

And the Arrow error ([17]; Table 5, error of Arrow PIMD8 hydration free energy vs experiment)?
The Arrow error was 0.711 kJ/mol.

And the “Arrow PIMD8 Error” value ([17]; absolute error vs Exp (hydration))?
Its value is 0.711 kJ/mol.
